Key:
Format in all cases: cell-based, Escherichia coli
[1] = system: EKO-35 araC::acrD Pore; assay: MIC susceptibility profiling, porinated efflux platform
Method in brief: (§1)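 Strains carry the fhuA ΔC/Δ4L pore integrated between glmS and pstS under a constitutive promoter, with pore activity checked by vancomycin susceptibility. Overnight LB cultures were adjusted in PBS pH 7.4 to OD600 ~1.0 and diluted 1/2000 into MHB II. 2-fold compound titrations were read by OD600 after 18 h at 37 °C.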

[2] = system: EKO-35 araC::emrKY Pore; assay: as above
Method in brief: as §1

[3] = system: EKO-35 araC::acrBD408A Pore; assay: as above
Method in brief: as §1

[4] = system: E. coli ΔtolC; assay: microbe, parasite or virus in culture; conditions: technical duplicate
Method in brief: (§2)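 Overnight LB cultures (37 °C, 18 h) were resuspended in PBS pH 7.4 to OD600 ~1.0 and diluted 1/2000 into MHB II. Strains were exposed to 2-fold serial compound dilutions in duplicate for 18 h at 37 °C with shaking. MIC was read from OD600 after subtracting pre-incubation background.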

[5] = system: wild-type E. coli K-12 str. BW25113; assay: microbe, parasite or virus in culture; conditions: technical duplicate
Method in brief: as §2

[6] = system: E. coli EKO-35; assay: microbe, parasite or virus in culture
Method in brief: as §2

[7] = system: ΔtolC-Pore; assay: microbe, parasite or virus in culture; conditions: technical duplicate
Method in brief: as §1

[8] = system: wild-type (WT) K-12-Pore; assay: microbe, parasite or virus in culture; conditions: technical duplicate
Method in brief: as §1

[9] = system: EKO-35 araC::emrKY; assay: MIC susceptibility profiling, efflux platform
Method in brief: as §2

[10] = system: EKO-35 araC::mdtEF; assay: MIC susceptibility profiling, efflux platform
Method in brief: as §2

[11] = system: EKO-35 araC::emrAB; assay: MIC susceptibility profiling, efflux platform
Method in brief: as §2

[12] = system: EKO-35 araC::macAB; assay: MIC susceptibility profiling, efflux platform
Method in brief: as §2

[13] = system: EKO-35 araC::acrBD408A; assay: MIC susceptibility profiling, efflux platform
Method in brief: as §2

[14] = system: EKO-35 araC::mexCD (MexCD from P. aeruginosa); assay: MIC susceptibility profiling, efflux platform
Method in brief: as §2

[15] = system: EKO-35 araC::acrEF; assay: MIC susceptibility profiling, efflux platform
Method in brief: as §2

[16] = system: EKO-35 araC::acrD; assay: MIC susceptibility profiling, efflux platform
Method in brief: as §2

[17] = system: EKO-35 araC::mdtBC; assay: MIC susceptibility profiling, efflux platform
Method in brief: as §2

[18] = system: EKO-35 araC::acrB; assay: MIC susceptibility profiling, efflux platform
Method in brief: as §2

[19] = system: EKO-35-Pore; assay: MIC susceptibility profiling, porinated strain
Method in brief: as §1

[20] = Table 14A, porinated, technical duplicate
[21] = Table 13A, non-porinated, technical duplicate
[22] = Table 13B, non-porinated, technical duplicate

Compound: C[n+]1c2cc(N)ccc2cc2ccc(N)cc21.[Cl-] [acriflavine]
- Fold changes of MICs ([1]; EKO-35 araC::acrD Pore compared to EKO-35-Pore): 2 fold
- Minimum inhibitory concentration, EKO-35 araC::acrD Pore [1, 20]: 0.195 µg/mL
- Fold changes of MICs ([2]; EKO-35 araC::emrKY Pore compared to EKO-35-Pore): 1 fold
- Minimum inhibitory concentration ([2]; EKO-35 araC::emrKY Pore, technical duplicate): 0.098 µg/mL
- Fold changes of MICs ([3]; EKO-35 araC::acrBD408A Pore compared to EKO-35-Pore): 1 fold
- Minimum inhibitory concentration ([3]; EKO-35 araC::acrBD408A Pore, technical duplicate): 0.098 µg/mL
- Minimum inhibitory concentration (MIC), ΔtolC ([4]; Table 10, without pore): 3.125 µg/mL
- Minimum Inhibitory Concentration, ΔtolC ([4]; Table 13A, non-porinated): 3.125 µg/mL
- Minimum inhibitory concentration (MIC), K-12 ([5]; Table 10, without pore): 50 µg/mL
- Minimum Inhibitory Concentration, K-12 ([5]; Table 13A, non-porinated): 50 µg/mL
- susceptibility of EKO-35 compared with the ΔtolC mutant [6]: more susceptible
- Fold change of MICs ([6]; EKO-35 compared to EKO-35 (reference)): 1 fold
- Minimum inhibitory concentration (MIC), EKO-35 ([6]; Table 10, without pore, technical duplicate): 0.098 µg/mL
- Minimum Inhibitory Concentration, EKO-35 [6, 21]: 0.098 µg/mL
- Minimum inhibitory concentration (MIC), Pore ΔtolC ([7]; Table 10, with pore): 3.125 µg/mL
- Minimum inhibitory concentration, ΔtolC-Pore ([7]; Table 14A, porinated): 3.125 µg/mL
- Minimum inhibitory concentration (MIC), Pore K-12 ([8]; Table 10, with pore): 50 µg/mL
- Minimum inhibitory concentration, K-12 (WT)-Pore ([8]; Table 14A, porinated): 50 µg/mL
- Fold change of MICs ([9]; EKO-35 araC::emrKY compared to EKO-35): 1 fold
- Minimum Inhibitory Concentration, EKO-35 araC::emrKY [9, 22]: 0.098 µg/mL
- Fold change of MICs ([10]; EKO-35 araC::mdtEF compared to EKO-35): 2 fold
- Minimum Inhibitory Concentration, EKO-35 araC::mdtEF [10, 21]: 0.195 µg/mL
- Fold change of MICs ([11]; EKO-35 araC::emrAB compared to EKO-35): 1 fold
- Minimum Inhibitory Concentration, EKO-35 araC::emrAB [11, 22]: 0.098 µg/mL
- Fold change of MICs ([12]; EKO-35 araC::macAB compared to EKO-35): 1 fold
- Minimum Inhibitory Concentration, EKO-35 araC::macAB [12, 22]: 0.098 µg/mL
- Fold change of MICs ([13]; EKO-35 araC::acrBD408A compared to EKO-35): 1 fold
- Minimum Inhibitory Concentration, EKO-35 araC::acrBD408A [13, 22]: 0.098 µg/mL
- Fold change of MICs ([14]; EKO-35 araC::mexCD compared to EKO-35): 8 fold
- Minimum Inhibitory Concentration, EKO-35 araC::mexCD [14, 22]: 0.781 µg/mL
- Fold change of MICs ([15]; EKO-35 araC::acrEF compared to EKO-35): 8 fold
- Minimum Inhibitory Concentration, EKO-35 araC::acrEF [15, 21]: 0.781 µg/mL
- Fold change of MICs ([16]; EKO-35 araC::acrD compared to EKO-35): 2 fold
- Minimum Inhibitory Concentration, EKO-35 araC::acrD [16, 21]: 0.195 µg/mL
- Fold change of MICs ([17]; EKO-35 araC::mdtBC compared to EKO-35): 1 fold
- Minimum Inhibitory Concentration, EKO-35 araC::mdtBC [17, 22]: 0.098 µg/mL
- Fold change of MICs ([18]; EKO-35 araC::acrB compared to EKO-35): 32 fold
- Minimum Inhibitory Concentration, EKO-35 araC::acrB [18, 21]: 3.125 µg/mL
- restoration of resistance to wild-type levels by acrB alone ([18]; overexpression of acrB in EKO-35): did not restore resistance to wild-type levels
- Fold changes of MICs ([19]; EKO-35-Pore compared to EKO-35-Pore (reference)): 1 fold
- Minimum inhibitory concentration (MIC), Pore EKO-35 ([19]; Table 10, with pore, technical duplicate): 0.098 µg/mL
- Minimum inhibitory concentration, EKO-35-Pore [19, 20]: 0.098 µg/mL

Reference: patent US20230407243A1, “GENETIC PLATFORM TO INVESTIGATE THE FUNCTIONS OF BACTERIAL DRUG EFFLUX PUMPS” (priority 2022, published 2023)
